Laboratory results as given in patent publication US11000505B2 (priority 2010, dated 2021).
Where “and” joins values, the source holds several entries; their conditions need not be identical. Equal entries are not always repeated.

Tested on: neonatal mouse hypoxia model
Test: Neonatal mouse hypoxia model: mortality, development, neurobehavior (Example 5)
Assay type: in vivo, C57BL/6J mice
Excerpt: The protocol was approved by the Institutional Animal Care and Use Committee (IACUC) of the University of Pennsylvania and carried out in accordance with National Institutes of Health guidelines for the use of animals. C57BL/6J mice were purchased from The Jackson Laboratory (Bar Harbor, Me.) and inbreed pups were used for subsequent experiments. Pups were housed under a 12-hour light/dark cycle after birth with free access to food and water throughout the study. Pups from different litters were divided into 3 groups randomly. Pups in the control group (n=11) received i.p. injection of 17% dimethyl sulfoxide (DMSO) without hypoxia insult; the hypoxia group (n=46) received i.p. injection of 17% DMSO and hypoxia insult; SA group (n=26) received i.p. injection of 0.5 mg/kg SA in 17% DMSO and hypoxia insult. Pups of low weight (<1.2 g) were excluded from the study.
The hypoxic insult was induced on postnatal day 1. After i.p. injections, pups were put into a glass chamber in a water bath where the temperature was maintained at 37° C. The chamber was tightly closed and filled with 8% oxygen with balanced nitrogen. Following 120 minutes of hypoxic gas exposure, the chamber was opened and the pups were exposed to the air. Chest compressions and limb stretches were performed for up to 20 minutes to regain spontaneous breathing. The pups that successfully regained spontaneous breathing were then returned to their mothers after recovery for 30 minutes.
The neonate mouse will be considered as non-survival if no spontaneous breathing can be restored for 20 min resuscitation immediately after anoxic insult. The mortality rate will be calculated as: […]=(number of mice in a group-number of non-survival)/number of mice in a group.
From postnatal day 2 to postnatal day 21, the pups were weighed and motor behavior observation was performed every day. Pups were observed individually in a plastic testing box. Each of the following behaviors was recorded for 3 minutes: crawling, walking, running, head point and sniffing, sitting, rearing and eye opening. After the observation, placing reflex, cliff aversion, negative geotaxis, righting response and forelimb grasping testing were performed. The first appearance of the behavior or reflex continued for two consecutive days was recorded.
The open field test was performed to gauge locomotor activity on postnatal day 21 at which the mouse was considered juvenile. Mice were individually placed in a 41 cm (L)×41 cm (W)×30 cm (H) plastic box. The “central area” was defined as a 20.5 cm×20.5 cm square in the center of the box. The rest of the area was defined as the “peripheral area” (see FIG. 25A). The time each mouse spent on exploring the central and periphery parts and the number of rearing behaviors in each respective area were recorded for the first 5 minutes and 30 minutes.
At the age of 10-11 weeks, all mice were tested in several behavioral tasks in the order of: zero mazes, barnes maze and fear conditioning. These tasks were performed to examine the basal anxiety level, spontaneous locomotor activity, motor learning, spatial learning and associative memory of the mice. The mice were given 5 days for rest between each behavioral test.
“Time in open” measures mice anxiety due to their tendency to avoid open spaces. The anxiety was measured by recording the time spent in the open vs. enclosed space. Increased anxiety correlates to decreased time in the open. Open/Closed transitions measure overall activity. Increased transitions equate to greater activity.
Measures the ability to learn with visual cues. Time to Target measures the time taken to find the target hole in an arena with 19 other holes and several visual cues. The Barnes Maze is easier to set-up and probably less stressful and a valid alternative to the Water Maze to study spatial memory. […]

## COC(=O)[C@@H]1C[C@H](OC(C)=O)C(=O)[C@H]2[C@@]1(C)CC[C@H]1C(=O)O[C@H](c3ccoc3)C[C@]21C [Salvinorin A]
0.5 mg/kg i.p. before 120 min hypoxia (8% oxygen), postnatal day 1, hypoxia group 70%
  mortality rate: 38.5%
0.5 mg/kg i.p. before hypoxia
  delayed appearance of forelimb grasping, cliff aversion, righting response and eye opening: prevented these delays
  pups survived after HI injury: 16 out of 26
P7, P14 and P21
  body weight difference among groups: no significant difference was observed among groups
P21
  time in the central area, open field testing: not statistically significant
P21, first 5 minutes and 30 minutes
  rearing test: impairment was not observed
Age 10-11 weeks
  Barnes maze spatial memory: no significant difference among groups
  elevated zero maze: time in open arm and open/closed transitions, SA vs hypoxia: no significant differences
  fear conditioning: no significant differences were observed among groups
Hypoxia 19.86±0.29, control 18.18±0.44, mean±SEM, listed as SA
  first appearance of rearing without support: 18.69 ± 0.38 days and 18.69 ± 0.3843 days
mouse, in vivo
  other developmental parameters (crawling, walking, running, head point and sniffing, sitting, rearing with support, negative geotaxis, placing reflex): no statistical significance
Postnatal day 2 and day 3
  body weight vs hypoxia group: increased body weight
